# Assay results: patent US9926377B2, “Anti-GPC3 antibodies and immunoconjugates” (GENENTECH, INC., priority 2014, dated 2018)
# Like-named read-outs stand apart in the source and are kept apart here.
# Assays:
# Type in all cases: cell-based
# Huh7 = test: Cell line sensitivity (proliferation, CellTiter-GloII), Huh7; conditions: Homo sapiens, Huh-7, 120 h
# Experimental: (§1) Various GPC3-expressing cell lines were tested for sensitivity to free nemorubicin derivative, PNU-159682, which has the structure:
# (§2) [drawing 32] as follows. Proliferation in the presence of PNU-159682 or SG-2057 were assessed using cells plated at 1000 cells per well in 50 μl of normal growth medium in 96-well clear-bottom plates (PerkinElmer Life Sciences). Twenty-four hours later, an additional 50 μl of culture medium with serial dilutions of the drug was added to triplicate wells. Three or 5 days later, cell numbers were determined using CellTiter-GloII (Promega Corp.) and with an EnVision 2101 multilabel reader (PerkinElmer).
# JHH5 = test: Cell line sensitivity (proliferation, CellTiter-GloII), JHH5; conditions: 120 h
# Experimental: as §1, §2
# JHH7 = test: Cell line sensitivity (proliferation, CellTiter-GloII), JHH7
# Experimental: as §1, §2
# 293S = test: Cell line sensitivity (proliferation, CellTiter-GloII), 293S; conditions: 120 h
# Experimental: as §1, §2
# 293_GPC3 = test: Cell line sensitivity (proliferation, CellTiter-GloII), 293_GPC3; conditions: 120 h
# Experimental: as §1, §2
# HepG2 = test: Cell line sensitivity (proliferation, CellTiter-GloII), HepG2; conditions: Homo sapiens
# Experimental: as §1, §2
# PC3 = test: Cell line sensitivity (proliferation, CellTiter-GloII), PC3; conditions: Homo sapiens, PC-3, 120 h
# Experimental: as §1, §2
# Hep3B.2.1-7 = test: Cell line sensitivity (proliferation, CellTiter-GloII), Hep3B.2.1-7; conditions: 120 h
# Experimental: as §1, §2
Structure (SMILES),EC50 (Huh7) [nM],EC50 (JHH5) [nM],"EC50 (JHH7; JHH7, 120 h) [nM]",EC50 (293S) [nM],EC50 (293_GPC3) [nM],"EC50 (HepG2; HepG2, 120 h) [nM]",EC50 (PC3) [nM],EC50 (Hep3B.2.1-7) [nM],"EC50 (Huh7; Huh7, free drug, cell numbers three or 5 days after drug addition, read-out: EC50) [nM]","EC50 (JHH5; JHH5, free drug, cell numbers three or 5 days after drug addition, read-out: EC50) [nM]","EC50 (JHH7; 120 h, JHH7, free drug, cell numbers three or 5 days after drug addition, read-out: EC50) [nM]","EC50 (293S; 293S, free drug, cell numbers three or 5 days after drug addition, read-out: EC50) [nM]","EC50 (293_GPC3; 293_GPC3, free drug, cell numbers three or 5 days after drug addition, read-out: EC50) [nM]","EC50 (HepG2; 120 h, HepG2, free drug, cell numbers three or 5 days after drug addition, read-out: EC50) [nM]","EC50 (PC3; PC3, free drug, cell numbers three or 5 days after drug addition, read-out: EC50) [nM]","EC50 (Hep3B.2.1-7; Hep3B.2.1-7, free drug, cell numbers three or 5 days after drug addition, read-out: EC50) [nM]"
C=C1C[C@H]2C=Nc3cc(OCCCCCOc4cc5c(cc4OC)C(=O)N4CC(=C)C[C@H]4C=N5)c(OC)cc3C(=O)N2C1 [SG-2057],0.147,0.105,0.135,0.056,0.034,0.029,0.122,0.474,–,–,–,–,–,–,–,–
COc1cccc2c1C(=O)c1c(O)c3c(c(O)c1C2=O)C[C@@](O)(C(=O)CO)C[C@@H]3O[C@H]1C[C@H]2[C@H](O[C@@H]3[C@@H](OC)OCCN32)[C@H](C)O1 [PNU-159682],–,–,–,–,–,–,–,–,0.029,0.031,0.038,0.022,0.019,0.029,0.051,0.042
